Assays:
[1] = UV-Vis calibration: molar attenuation coefficient at 357 nM in isopropanol; type: physicochemical; conditions: run in triplicate, per mole of compound or dendrimer conjugate
From the text: Avobenzone and the avobenzone conjugates were each dissolved in isopropanol and the titrations were run in triplicate to calculate extinction coefficients for each conjugate.
UV analysis was run on each conjugate to test the absorbance and degradation profile of each compound. The linker and scaffold must not shift the UV absorbance profile of the avobenzone if it is to be used as an additive in sunscreen formulations. Otherwise, it might no longer be active as a UV-A filter. UV calibrations were run for free avobenzone, avobenzone with linker, and each class and generation of dendrimer-avobenzone conjugate to compare the modified molecules to the original under the same conditions.
The molar attenuation coefficient for each compound was calculated at 357 nM, the absorption maximum in the UVA-1 range. […] Additionally, no shift was observed after ligation to the dendrimer scaffolds.
Extinction coefficient curves were taken in isopropanol, a protic solvent known to stabilize avobenzone under UV irradiation, allowing the curve to be run on a single sample of avobenzone per curve without loss of activity (Mturi et al., J. Phoochem. Pholobiol. 200:410-20 (2008), which is hereby incorporated by reference in its entirety).

[2] = UV decay / UV stability: change of absorbance under UV lamp over four hours; type: physicochemical; conditions: ethyl acetate, UV lamp 365 nM, peak at 357 nm, triplicate, average
From the text: Avobenzone and the avobenzone conjugates were each dissolved in ethyl acetate, unless otherwise noted, and sealed in airtight quartz cuvettes. […] The avobenzone decay curves were run in triplicate and extra decay curves run in duplicate. UV stability experiments were run in triplicate in ethyl acetate (Mturi et al., J. Photochem. […] Unlike isopropanol, this solvent is known to encourage degradation and was chosen so that the experimental time scales would be similar to the time scale of sun exposure in vivo. Due to FDA regulations, all commercial sunscreens are labeled with instructions to reapply every two hours. The avobenzone systems were tested over four hours, double that time. The avobenzone, avobenzone linker, or avobenzone-dendrimer conjugate was dissolved in a small amount of isopropanol. In each study 90 μL of the stock solution was added to 3 mL of ethyl acetate and sealed in an airtight quartz cuvette. The initial absorptions were measured and the samples were sealed in quartz cuvettes and left under a UV lamp emitting at 365 nM. The absorption profile was measured at regular intervals.

Structure (SMILES): COc1ccc(C(=O)C(CCCCCCCCCCCO)C(=O)c2ccc(C(C)(C)C)cc2)cc1 (stereo not shown) [avobenzone with linker]
- molar attenuation coefficient (for the compound / conjugate) [1]: 2,899 M^−1 cm^−1
- final absorbance as % of the initial absorbance [2]: 108±1.8%

Structure (SMILES): COc1ccc(C(=O)CC(=O)c2ccc(C(C)(C)C)cc2)cc1 [bare avobenzone, 4-Tert-butyl-4′-methoxydibenzoylmethane]
- molar attenuation coefficient (for the compound / conjugate) [1]: 1,039 M^−1 cm^−1
- final absorbance as % of the initial absorbance [2]: 90.7±1.4%
